Experimental data published in PubChem BioAssay AID179 (DTP/NCI, 2004).
The source made the active and inactive calls.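 How the source made its calls: active means compounds giving half or more protection of infected cells from virus-caused growth loss, again on retest; inactive means the rest.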 Where a SMILES comes first, the peptide text is derived from it. The star is where a group is joined. Boc = CC(C)(C)OC(=O)*

System: CEM cells HIV-1 protection, formazan growth assay
Assay: NCI AIDS Antiviral Assay
Conditions: for IC50: measured here: growth of uninfected CEM cells
In short: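 CEM (human) cells, HIV-1 infected vs uninfected, 5-point dosing, formazan growth read-out. Retest threshold 50% protection.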

Row | Compound | EC50 [µM] | IC50 [µM] | outcome
1 | O=C(NC1C=Nc2ccccc2NC1=O)c1ccccc1Cl (stereo unspecified) | > 115 | 97.7 | 
2 | CSc1ncccc1C(=O)[O][Sn]([c]1ccccc1)([c]1ccccc1)[c]1ccccc1 | > 2 | 0.316 | 
3 | CCOC(=O)c1ccc(NC(=O)O/N=C(/Cl)CC)cc1 |  |  | inactive
4 | N#Cc1nn(C2OC(COC(=O)c3ccccc3)C(OC(=O)c3ccccc3)C2OC(=O)c2ccccc2)c2nc[nH]c(=O)c12 (stereo unspecified) | > 200 | 74.1 | 
5 | COC(=O)C1=C(C)C(=O)[C@]23C(CCCC[C@H]12)C(=O)[C@H](C(=O)OC)C3C (stereo partly specified) | > 200 | > 200 | 
6 | CC1(C)CC(=O)C2=C(C1)NC(=S)C(C#N)C2c1ccccc1 (stereo unspecified) | > 85.1 | 32.4 | 
7 | O=C(CN1CCC(O)(c2ccc(F)cc2)CC1)N1CCN(C/C=C/c2ccccc2)CC1 | > 200 | 28.8 | 
8 | Cc1ccc(S(=O)(=O)Nn2c(C)cc3ccc(S(=O)(=O)Nc4ccccc4[N+](=O)[O-])cc3c2=O)cc1 | > 200 | 10.2 | 
9 | COc1ccc(NS(=O)C2CCCCC2)cc1 (stereo unspecified) | > 200 | > 200 | 
10 | COc1cc(/C=c2\sc3n(c2=O)C(c2ccc(Cl)cc2)C2=C(CCCC2C)N=3)cc(OC)c1OC (stereo unspecified) | > 200 | > 200 | 
11 | COc1cc2c(cc1OC)/C(=C/c1ccc(N(C)C)cc1)C=C2 | > 17 | > 17 | 
12 | CCOC(=O)NC(=O)c1cn(C2CCCCC2)c(=O)n(C)c1=O | > 81.3 | > 81.3 | 
13 | CN1C(=O)C(Cl)(C(Cl)(Cl)S(=O)(=O)O)C(=O)c2ccccc21 (stereo unspecified) |  |  | inactive
14 | Cc1nc2c(ccc3ncccc32)[nH]1 |  |  | inactive
15 | O=c1[nH]c(=O)n(C2OC(CO)C(O)C2O)c(NNc2ccccc2)c1NNc1ccccc1 (stereo unspecified) | 145 | > 200 | 
16 | O=[N+]([O-])c1cccc2nc3ccccc3c(NCCc3ccccn3)c12 | > 2 | 0.0631 | 
17 | CCOC(=O)NCC(OS(C)(=O)=O)C(CNC(=O)OCC)OS(C)(=O)=O (stereo unspecified) | > 120 | > 120 | 
18 | CCOC(=O)NC(NC(=O)OCC)C(NC(=O)OCC)NC(=O)OCC | > 200 | > 200 | 
19 | CCOC(=O)/C(C#N)=C/c1cccc(Br)c1 |  |  | inactive
20 | CCN(CC)C(=O)N[C@@H](Cc1ccccc1)C(=O)NC | > 200 | > 200 | 
21 | CCCCCCCC(=O)OCC1OC(n2cc(F)c(=O)[nH]c2=O)C(N)C(OC(=O)CCCCCCC)C1O (stereo unspecified) | > 47.9 | 38.9 | 
22 | CC1S(=O)(=O)OCCCOS1(=O)=O | > 1070 | > 1070 | 
23 | CC(C)(C)[Si](C)(C)OCC1OC(n2cnc3c(=O)[nH]c(NCc4ccccc4)nc32)C(O[Si](C)(C)C(C)(C)C)C1O[Si](C)(C)C(C)(C)C (stereo unspecified) | > 200 | 141 | 
24 | CC(=O)OC1=c2ccccc2=C(O)C2C1C=NN2C(C)=O (stereo unspecified) | > 200 | 87.1 | 
25 | CC1CC2C(=O)N(c3ccccc3)C(=O)C2c2c1c1ccccc1n2Cc1ccccc1 (stereo unspecified) |  |  | inactive
26 | CCc1cc2c(oc3cc4ccccc4cc32)c(=O)[nH]1 | > 200 | > 200 | 
27 | COc1ccc2c(O)c(Cc3ccc(OC)c(OC)c3)c(=O)oc2c1 |  |  | inactive

Row | Compound | EC50 [µM] | IC50 [µM] | outcome
28 | CCOC(=O)C(/C=N/C(=S)Nc1c(C)cccc1C)=C(/O)c1ccccc1 | > 200 | > 200 | 
29 | C=CC1(C)CCC2C(=CCC3C(C)(COC4OC(CO)C(O)C(O)C4O)C(O)CCC23C)C1 (stereo unspecified) | > 200 | > 100 | 
30 | CC1(CCC#N)CCC(N)=CC1=O (stereo unspecified) | > 200 | > 200 | 
31 | CC(=O)OCC1OC(OC2C(COC(C)=O)OC(Sc3ccccc3C)C(OC(C)=O)C2OC(C)=O)C(OC(C)=O)C(OC(C)=O)C1OC(C)=O (stereo unspecified) | > 25.1 | > 25.1 | 
32 | C=C(C)[C@@H]1CC[C@@H](C)[C@](O)([C@@H]2C[C@@H]([C@H](COC(=O)c3ccccc3)OC(=O)c3ccccc3)OC2=O)C1 | > 100 | > 100 | 
33 | NC(CC(C(=O)O)c1ccccc1)C(=O)O (stereo unspecified) | > 200 | 112 | 
34 | CCN=C1Nc2ccccc2-n2c(nn3nc4ccccc4c23)N1CC | 5.37 | > 200 | 
35 | COC(=O)C1=COC(C)C2Cn3ccc4c5ccccc5nc-4c3CC12 (stereo unspecified) | > 129 | 75.9 | 
36 | CC(=O)/C=C/c1cccc(N=S)c1 | > 2.82 | > 2.82 | 
37 | CC1(CCC2C=CCC2)CCCNC1=S (stereo unspecified) | 38 | 89.1 | 
38 | CCOc1ccncc1[N+](=O)[O-] | > 200 | > 200 | 
39 | Cc1ccc(C=Nc2ccc(SSc3ccc(N=Cc4ccc(C)cc4)cc3)cc2)cc1 | > 200 | 26.3 | 
40 | CCOC(=O)c1cc2c(nc1N)-c1ncccc1CC2 | > 19.5 | 0.219 | 
41 | CC1(C)CC(=O)C2=C(C1)NC(SSC1=C(C#N)C(c3ccc(F)cc3)C3=C(CC(C)(C)CC3=O)N1)=C(C#N)C2c1ccc(F)cc1 (stereo unspecified) | 19.1 | 39.8 | 
42 | O=C1c2ccccc2-c2ccccc2C(=O)C1(Br)Br |  |  | inactive
43 | COc1ccc2nc3cc([N+](=O)[O-])ccc3c(NNc3ccc([N+](=O)[O-])cc3)c2c1 | > 200 | 50.1 | 
44 | COc1cc(CNc2nc3c(NC(C)=O)cc(C(F)(F)F)cc3nc2-c2ccccc2)cc(OC)c1OC | > 13.8 | 11.7 | 
45 | C[C@H](Nc1nc(N)c(N=O)c(=O)n1C)C(=O)O | > 200 | > 200 | 
46 | COc1cc(N=CNc2cc(OC)n[n+]([O-])c2)c[n+]([O-])n1 | > 224 | > 224 | 
47 | O=C(Nc1cc(C(=O)Nc2ccc(C3=NCCN3)cc2)cc(C2=NCCN2)c1)c1ccc(C(=O)Nc2cc(C(=O)Nc3ccc(C4=NCCN4)cc3)cc(C3=NCCN3)c2)cc1 | 5.37 | 89.1 | 
48 | COc1ccc2c(c1)C(=O)N1CSCC1C(=O)S2 (stereo unspecified) | > 200 | > 200 | 
49 | CC1(C)OC2OC(COC(=S)SSC(=S)OCC3OC4OC(C)(C)OC4C4OC(C)(C)OC34)C3OC(C)(C)OC3C2O1 (stereo unspecified) | > 200 | 5.62 | 
50 | COc1ccc(CCn2cnn3c(=O)c4ccccc4nc3c2=O)cc1OC | > 13.8 | > 13.8 | 
51 | CCOC(=O)/C(=C/c1ccc(C)cc1)P(=O)(OCC)OCC | 562 | 631 | 
52 | OC(=Nc1cc(C(O)=Nc2cc(C(O)=Nc3cc(C(O)=Nc4ccc(C5=NCCN5)cc4)cc(C4=NCCN4)c3)cc(C3=NCCN3)c2)cc(C2=NCCN2)c1)c1ccc(C(O)=Nc2cc(C(O)=Nc3cc(C(O)=Nc4cc(C(O)=Nc5ccc(C6=NCCN6)cc5)cc(C5=NCCN5)c4)cc(C4=NCCN4)c3)cc(C3=NCCN3)c2)cc1 | 14.5 | > 100 | 
53 | NCCCCC(NC(=O)C(CO)NC(=O)C(CO)NC(=O)CN)C(=O)NC(CO)C(=O)NC(CCCCN)C(=O)N1CCCC1C(=O)NC(CCCCN)C(=O)NC(CC(=O)O)C(N)=O (stereo unspecified) (H-GSSKSKPKD-NH2; configuration not given here) | > 269 | > 269 | 
54 | COC(=O)C(Cc1c[nH]c2ccccc12)NC(=O)C(Cc1c[nH]c2ccccc12)NC(=O)C(Cc1c[nH]c2ccccc12)NC(=O)C(Cc1c[nH]c2ccccc12)NC(=O)C(Cc1c[nH]c2ccccc12)NC(=O)C(Cc1c[nH]c2ccccc12)NC(=O)C(Cc1c[nH]c2ccccc12)NC(=O)C(Cc1c[nH]c2ccccc12)NC(=O)OC(C)(C)C (stereo unspecified) (Boc-WWWWWWWW-OMe; configuration not given here) | > 100 | 40.7 | 

Row | Compound | EC50 [µM] | IC50 [µM] | outcome
55 | Nc1ccc(CCCCc2ccc(S(=O)(=O)F)cc2Cl)c(Cl)c1 | > 200 | 21.9 | 
56 | N=c1c2sc3nc4ccccc4n3c2ncn1Cc1ccccc1 | > 100 | > 100 | 
57 | NC(=O)CNC(=O)c1ccccc1SC(=O)CCCC[n+]1ccccc1 | 1.74 | 178 | 
58 | OCC(O)C(O)C(O)c1nn(-c2ccccc2)c2nc3cc(Cl)c(Cl)cc3nc12 (stereo unspecified) |  |  | inactive
59 | Cc1ccc(S(=O)(=O)OCCOCCOCCOCCOCCOS(=O)(=O)c2ccc(C)cc2)cc1 |  |  | inactive
60 | C=C(C)C1CC(=O)C(C)=C(O)C1 (stereo unspecified) |  |  | inactive
61 | COC1Sc2ccccc2C(=O)N2CCCC12 (stereo unspecified) | > 200 | > 200 | 
62 | COc1cc(C2c3cc4c(cc3OC(N3CCOCC3)C2C)OCO4)cc(OC)c1OC(C)=O (stereo unspecified) | > 200 | 3.31 | 
63 | Nc1ccc(CCN2CCN(c3cccc(C(F)(F)F)c3)CC2)cc1 |  |  | inactive
64 | O=C1/C(=C/c2ccc(OC(=O)c3ccccc3)cc2)CCC/C1=C\c1ccc(OC(=O)c2ccccc2)cc1 | > 100 | > 100 | 
65 | C=C(Br)CNC(=O)Nc1ccccn1 | > 200 | > 200 | 
66 | CC1(C)CC(=O)C(/C=N/C(=S)NCc2ccccc2)=C(O)C1 | > 200 | > 200 | 
67 | N#Cc1c(-c2ccc(Cl)c(Cl)c2)c(-c2ccc(Cl)c(Cl)c2)nn(CC(=O)O)c1=O | > 200 | 55 | 
68 | COc1ccc(/C=C2\CSC/C(=C\c3ccc(OC)c(OC)c3OC)C2=O)c(OC)c1OC | > 200 | 15.5 | 
69 | O=C1c2ccccc2C(=O)N1Cc1ccccc1 | > 200 | > 200 | 
70 | c1ccc(N2CCN(CCN3CCc4c([nH]c5ccccc45)C3c3cccnc3)CC2)cc1 (stereo unspecified) | > 2.4 | > 2.4 | 
71 | CNNC1=NS(=O)(=O)c2cc(C)c(Cl)cc2S1 | > 200 | > 200 | 
72 | CC(=O)Nc1ncc(Sc2ccccc2C(=O)O)s1 | > 200 | > 200 | 
73 | CC(=O)Nc1cc2c(cc1O)CC[C@@H]1[C@@H]2CC[C@]2(C)[C@@H](O)CC[C@@H]12 | > 200 | 20.9 | 
74 | Cc1nc2ccc(Br)cc2c(=O)n1-c1nnc(C(C)(C)C)s1 | > 200 | > 200 | 
75 | CC1(C)CC(=O)C(CC(C(=O)C(=O)Nc2cc(C(F)(F)F)ccc2Cl)C(=O)c2ccco2)C(=O)C1 (stereo unspecified) | > 51.3 | 42.7 | 
76 | COC(=O)C1C(=O)C(C(=O)OC)C23C(C)CCC12C(C(=O)OC)C(=O)C3C(=O)OC (stereo unspecified) | > 46.8 | > 46.8 | 
77 | CC(=O)O[C@H]1CC[C@H]2[C@@H]3CCC4C(C)=NNC(=O)C4[C@H]3CC[C@]12C (stereo partly specified) | > 200 | > 200 | 
78 | CC(=O)NC(CCCCNC(=O)NCCCl)C(=O)NCc1ccccc1 (stereo unspecified) | > 646 | > 646 | 
79 | N#Cc1ccc(NC(=NCC(=O)O)Nc2ccc3ccccc3c2)cc1 |  |  | inactive
